Columns and labels:
[1] = system: S. aureus Met-R multiresistant strains; assay: MIC determination (NCCLS broth microdilution), methicillin-resistant multiresistant S. aureus strains; type: cell-based, Staphylococcus aureus; conditions: for MIC: antibiotype Oxa, Ery
Protocol: (§1) The MICs of thiamphenicol and of other antibiotics was obtained by using the method proposed by NCCLS (National Committee for Clinical Laboratory Standards, 1999).
(§2) Various antibiotic concentrations were added to bacteria in exponental growth (final inoculum 5×10^5 […]); dilution in Mb (cation-supplemented Mueller-Hinton broth) and distribution on a microplate by using an automatic diluting machine Biomek 1000 (Beckman, USA). MHb charged with 2% NaCl was used to test the methicillin activity.
(§3) The antibiotic concentration which hinders a visible growth after 18-24 hours of incubation at 37° C., was registered as MIC.
(§4) S. aureus ATCC 29213 was used as quality control strain.

[2] = system: S. aureus vancomycin-intermediates (VISA) Met-R strains; assay: MIC determination (NCCLS broth microdilution), VISA Met-R strains; type: cell-based, Staphylococcus aureus; conditions: for MIC: antibiotype Oxa, Cip, Clin, Ery
Protocol: as §1, §2, §3, §4

## teicoplanine
[1]; S. aureus (50) Met-R
  MIC 50%: 0,5 mg/l
  MIC 90%: 1 µg/mL
  MIC Range: 0,12-2 mg/l
[1]; S. aureus (50) Met-R, NCCLS (1999) breakpoints
  % susceptible at breakpoint: 100%
[1]; Strain 1, Cip, Clin, Gm
  MIC: 0.25 µg/mL
[1]; Strain 2, Clin, Fos
  MIC: 0.5 µg/mL
[1]; Strain 3, Cip, Clin, Gm
  MIC: 1 µg/mL
[1]; Strain 4, Cip, Gm
  MIC: 0.5 µg/mL
[1]; Strain 5, Cip, Clin
  MIC: 1 µg/mL
[1]; Strain 6, Clin, Gm
  MIC: 1 µg/mL
[1]; Strain 7, Cip, Gm
  MIC: 0.25 µg/mL
[1]; Strain 8, Cip, Clin
  MIC: 0.25 µg/mL
[1]; Strain 9, Cip, Clin, Gm
  MIC: 0.25 µg/mL
[1]; Strain 10, Cip, Clin, Gm
  MIC: 0.25 µg/mL
[1]; Strain 11, Clin, Rif
  MIC: 1 µg/mL
[1]; Strain 12, Cip, Clin
  MIC: 1 µg/mL
[1]; Strain 13, Cip, Clin
  MIC: 1 µg/mL
[1]; Strain 14, Clin, Cip
  MIC: 0.5 µg/mL
[1]; Strain 15, Cip, Clin, Gm
  MIC: 0.25 µg/mL
[1]; Strain 16, Cip, Clin
  MIC: 1 µg/mL
[1]; Strain 17, Cip, Clin
  MIC: 0.25 µg/mL
[1]; Strain 18, Cip, Clin, Gm
  MIC: 1 µg/mL
[1]; Strain 19, Cip, Clin, Gm
  MIC: 1 µg/mL
[1]; Strain 20, Cip, Clin, Gm
  MIC: 0.25 µg/mL
[1]; Strain 21, Cip, Clin, Gm
  MIC: 0.5 µg/mL
[1]; Strain 22, Cip, Clin
  MIC: 0.25 µg/mL
[1]; Strain 23, Cip, Clin, Gm
  MIC: 0.5 µg/mL
[1]; Strain 24, Cip, Clin, Gm
  MIC: 0.5 µg/mL
[1]; Strain 25, Cip, Clin, Gm
  MIC: 1 µg/mL
[1]; Strain 26, Cip, Clin, Fos, Gm
  MIC: 1 µg/mL
[1]; Strain 27, Cip, Clin, Fos, Gm
  MIC: 1 µg/mL
[1]; Strain 28, Cip, Clin, Gm
  MIC: 0.5 µg/mL
[1]; Strain 29, Clin, Fos
  MIC: 0.5 µg/mL
[1]; Strain 30, Cip, Clin, Gm, SXT, Dox
  MIC: 1 µg/mL
[1]; Strain 31, Cip, Clin, Fox, Gm
  MIC: 0.5 µg/mL
[1]; Strain 32, Cip, Clin, Gm, SXT, Rif
  MIC: 0.5 µg/mL
[1]; Strain 33, Cip, Clin, Gm
  MIC: 0.5 µg/mL
[1]; Strain 34, Cip, Clin, Gm
  MIC: 0.25 µg/mL
[1]; Strain 35, Cip, Clin, Gm
  MIC: 0.5 µg/mL
[1]; Strain 36, Cip, Clin, Fos
  MIC: 1 µg/mL
[1]; Strain 37, Cip, Clin, Fos, Gm
  MIC: 0.25 µg/mL
[1]; Strain 38, Cip, Gm
  MIC: 0.25 µg/mL
[1]; Strain 39, Cip, Clin, Fos, Gm
  MIC: 0.25 µg/mL
[1]; Strain 40, Cip, Clin, Gm
  MIC: 0.25 µg/mL
[1]; Strain 41, Cip, Clin
  MIC: 0.25 µg/mL
[1]; Strain 42, Cip, Clin, Gm
  MIC: 0.12 µg/mL
[1]; Strain 43, Cip, Clin, Gm
  MIC: 0.5 µg/mL
[1]; Strain 44, Cip, Clin, Gm, Rif, Dox
  MIC: 1 µg/mL
[1]; Strain 45, Cip, Clin, Gm, Rif, Dox, Fos
  MIC: 0.5 µg/mL
[1]; Strain 46, Clin, Fos
  MIC: 0.25 µg/mL
[1]; Strain 47, Cip, Clin, Gm
  MIC: 0.12 µg/mL
[1]; Strain 48, Cip, Clin
  MIC: 2 µg/mL
[1]; Strain 49, Cip, Gm
  MIC: 0.5 µg/mL
[1]; Strain 50, Cip, Clin, Gm, Rif, Dox
  MIC: 0.5 µg/mL
[2]; Strain 51 VISA
  MIC: 8 µg/mL
[2]; Strain 52 VISA
  MIC: 8 µg/mL
[2]; VISA (2) Met-R
  MIC Range: 8 µg/mL
[2]; VISA (2) Met-R, NCCLS (1999) breakpoints
  % susceptible at breakpoint: 100%

From patent US6589993B2, “Treating vancomycin-intermediates and multiresistant staphylococci infection with thiamphenicol or a salt thereof” (Zambon Group S.p.A., priority 2000, dated 2003)
